These results are taken from patent US5550110A, “Endothelin Antagonists II” (Warner-Lambert Company, priority 1994, dated 1996).

Peptide text beside a SMILES is read from it.

Data set [1] deals with CaCO-2 cells (human colon adenocarcinoma cell line). The class given is in vitro ADME. The procedure: For experiments, the cells were counted, then diluted to 2.5×10^5 cells/mL for planting (400 μL per well) onto Snapwell culture membranes with 2.5 mL media in the lower chamber. Media in the […] was changed every 2 to 3 days. Cells used for this series of experiments were between passage 38 and 91. 2-[N-Morpholino]ethanesulfonic acid (MES)+25 mM glucose was used as incubation buffer for all the experiments and all incubation solutions were prepared to an osmotic pressure of 280 to 300 milliosmoles. The concentration of the endothelin antagonist being studied (for all experiments) was 100 μM and another endothelin antagonist with similar HPLC characteristics (retention time 2-3 minutes from the ET antagonist being studied, and similar chemical characteristics) was used at a concentration of 25 μM as an internal standard to compensate for any injection error. Prior to the start of the experiment, the transepithelial electrical resistance (TEER) was measured for each Snapwell (in media) at three points of the membrane. […] The membranes were washed by swirling in 0.9% normal saline and mounted in the pretreated diffusion chambers [0.1 mg/mL human serum albumin for 1 to 2 hours at 37° C. with O2 bubbling followed by air drying at 37° C. overnight, then with 4.5 to 5.0 mL dosing solution (MES+glucose+^14 C-PEG-4000 (5000 dpm/50 μL)+drug) for 5 minutes and 4.5 to 5.0 mL MES+glucose rinse just before the experiment.] The apical (donor) side was filled with 4.5 to 5.0 mL dosing solution, the basolateral (receiver) side with MES+glucose. Samples were removed from the donor and receiver compartments over the course of the experiment and analyzed for ^14 C-PEG 4000 (cell membrane integrity) and endothelin content.

Data set [2] deals with T1, endothelin receptor (ETB), rat cerebellar membranes (Rattus norvegicus, UniProt P21451).
T1 construct: thaw one aliquot of frozen rat cerebellar membranes (2 mg protein in 0.5 mL); from tissue; host or cells: rat cerebellum (membranes)
T1 sequence (P21451 27-442): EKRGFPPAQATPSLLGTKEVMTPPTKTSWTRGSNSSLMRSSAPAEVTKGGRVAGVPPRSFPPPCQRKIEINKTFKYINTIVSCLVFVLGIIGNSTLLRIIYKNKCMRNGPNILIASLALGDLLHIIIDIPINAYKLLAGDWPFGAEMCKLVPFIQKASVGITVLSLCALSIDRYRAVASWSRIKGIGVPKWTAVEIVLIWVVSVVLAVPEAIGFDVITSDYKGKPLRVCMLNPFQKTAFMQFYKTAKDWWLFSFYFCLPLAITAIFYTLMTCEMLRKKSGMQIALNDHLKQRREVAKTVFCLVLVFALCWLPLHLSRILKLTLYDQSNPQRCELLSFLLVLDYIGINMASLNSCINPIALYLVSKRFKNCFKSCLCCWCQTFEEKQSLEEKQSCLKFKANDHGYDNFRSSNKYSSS
Description: Endothelin Receptor Binding Assay-B (ERBA-B), [125I]-ET-1 binding in rat cerebellar membranes. Conditions: [125I]-ET-1 25 pM, read-out: ERRA-B IC50.

Data set [3] relates to ETA (rabbit femoral artery). Conditions: ET-1 as agonist, endothelium-denuded rings. The source says: (§1) In Vitro Antagonism of ET-1 Stimulated Vasoconstriction in the Rabbit Femoral Artery (ETA) and Sarafotoxin 6c Stimulated Vasoconstriction in the Rabbit Pulmonary Artery (ETB)
(§2) Male New Zealand rabbits were killed by cervical dislocation and exsanguination. Femoral and pulmonary arteries were isolated, cleaned of connective tissue, and cut into 4-mm rings. The endothelium was denuded by placing the rings over hypodermic tubing (32 guage for femoral rings and 28 guage for pulmonary rings, Small Parts, Inc, Miami, Fla.) and gently rolling them. Denuded rings were mounted in 20 mL organ baths containing Krebs-bicarbonate buffer (composition in mM: NaCl, 118.2; NaHCO3, 24.8; KCl, 4.6; MgSO4 7.H2 O, 1.2; KH2 PO4, 1.2; CaCl2.2H2 O; Ca--Na2 EDTA, 0.026; dextrose, 10.0), that was maintained at 37° C. and gassed continuously with 5% CO2 in oxygen (pH 7.4). Resting tension was adjusted to 3.0 g for femoral and 4.0 g pulmonary arteries; the rings were left for 90 minutes to equilibrate.

The target of data set [4] is ETB (rabbit pulmonary artery) (Oryctolagus cuniculus, UniProt Q9N0W7).
Description: as §1, §2

Chain of ETB (rabbit pulmonary artery) (Q9N0W7 27-441): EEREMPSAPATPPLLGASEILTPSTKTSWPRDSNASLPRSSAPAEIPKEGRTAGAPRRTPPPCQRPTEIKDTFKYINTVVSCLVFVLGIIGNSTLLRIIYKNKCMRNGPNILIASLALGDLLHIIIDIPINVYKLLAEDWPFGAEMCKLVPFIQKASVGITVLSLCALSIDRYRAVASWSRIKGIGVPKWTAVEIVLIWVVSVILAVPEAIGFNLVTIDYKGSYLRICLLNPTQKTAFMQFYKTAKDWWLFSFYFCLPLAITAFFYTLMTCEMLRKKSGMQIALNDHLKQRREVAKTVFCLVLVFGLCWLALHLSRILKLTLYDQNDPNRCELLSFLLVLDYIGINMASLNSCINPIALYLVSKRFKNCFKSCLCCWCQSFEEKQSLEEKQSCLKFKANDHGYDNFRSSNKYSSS

Usually IC50 stands for the concentration that inhibits the measured activity by half. As for `CC[C@H](C)[C@H](NC(=O)[C@H](CC(=O)O)NC(=O)[C@H](CC(C)C)NC(=O)[C@H](NC(C)=O)C1c2ccccc2CCc2ccccc21)C(=O)N[C@H](C(=O)N[C@@H](Cc1c[nH]c2ccccc12)C(=O)O)[C@@H](C)CC` [Example 1, Ac-D-Bhg-Leu-Asp-Ile-Ile-Trp] (HELM PEPTIDE1{[ac].[O=C([C@H](N[*:1])C1c2ccccc2CCc2ccccc21)[*:2]].L.D.I.I.W}$$$$V2.0), the “absorption in the gut suggested by CaCO-2 values” in data set [1] is recorded as 5-10%. For the same compound, the IC50 in data set [2] was found to be 19 nM. The “pA2 Femoral” value in data set [3] worked out at 6.8. This compound gave a Kb in data set [4] of 79.4 nM.

`CC[C@H](C)[C@H](NC(=O)[C@H](CC(=O)O)NC(=O)[C@H](CC(C)C)NC(=O)[C@H](NC(C)=O)C1c2ccccc2CCc2ccccc21)C(=O)N(C)[C@H](C(=O)N[C@@H](Cc1c[nH]c2ccccc12)C(=O)O)[C@@H](C)CC` [Example 19, Ac-D-Bhg-Leu-Asp-Ile-N-MeIle-Trp] (HELM PEPTIDE1{[ac].[O=C([C@H](N[*:1])C1c2ccccc2CCc2ccccc21)[*:2]].L.D.I.[meI].W}$$$$V2.0): the “absorption in the gut suggested by CaCO-2 values” in data set [1] was 5-10%. Further, the IC50 in data set [2] was found to be 40 nM. For the same compound, the “pA2 Femoral” value in data set [3] stood at 7.3. Besides, the Kb in data set [4] was 251 nM.
